This note sets out measurements from patent US20090170749A1, “Novel Compounds Which Interact With PEA-15” (Institut National De La Sante Et De La Recherche Medicale …, priority 2005, published 2009).

Entries after “also recorded” stand apart in the source; their conditions may differ.

One assay has as its target T1, GFP-PEA-15 (Mus musculus, UniProt Q62048).
T1 construct: expressed in transfected cells
As to the kind of experiment: Detection of the interaction of 6D6-1 with GFP-PEA-15 by FRET in 3T3-GFP-PEA-15 cells. The assay is classed as cell-based. The conditions noted are these: 6D6-1 tested at 10^-4 M and 10^-5 M, 60 minutes, excitation 465 nm. The procedure: The cell line 3T3 expressing the GFP-PEA-15 (3T3-GFP-PEA-15 cell) was obtained as described by FORMSTECHER et al. (Dev. Cell., 2001, 1:239) by transfection of NIH3T3 cells with a EGFP-PEA-15 plasmide obtained as described by KITSBERG et al. (J. Neurosci., 1999, 19: 8244).
Clones resistant to the neomycin (G418) were selected and cultivated in a DMEM (Roche) medium supplemented with 10% of foetal calf serum, 2 mM of glutamine, penicillin (5 IU/ml) and streptomycin ([…]).
The GFP-PEA-15 protein expression was checked by the measurement of the fluorescence of the living cells and a WESTERN transfer analysis with an anti-GFP antibody (Roche, cat. No. 1,814,460 mixture of two monoclonal antibodies obtained from a mouse (clone 7.1 and clone 13.1)) and an anti-PEA-15 (rabbit polyclonal antibody, Sharif et al., Neuroscience, 126: 263, 2004).
The 3T3-GFP-PEA-15 cells are then cultivated up to confluence in a HAM-F12 medium comprising penicillin (10 000 U/ml)/streptomycin (10 000 μg/ml), 7% of foetal calf serum (BIOWHITTAKER) before the fluorescence resonance energy transfer (FRET) experiences. […]
After adding the 6D6-1 compound, the cells are gently agitated (100 rpm) for 60 minutes before the fluorescence read-out, in order to enable the compounds to diffuse and enter into the cells. […]
The GFP protein excited at 465 nm emits a fluorescence signal at 535 nm.

In assay [1] the target is T2, GST-PEA-15 fusion protein (Mus musculus, UniProt Q62048).
T2 construct: made in house
T2 sequence (Q62048 whole entry, the tested form may be a part): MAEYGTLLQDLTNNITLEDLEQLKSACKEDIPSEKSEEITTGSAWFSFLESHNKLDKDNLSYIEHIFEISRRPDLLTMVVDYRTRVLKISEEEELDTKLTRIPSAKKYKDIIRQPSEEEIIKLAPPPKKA
As to the kind of experiment: 6D6-1/PEA-15 protein interaction: fluorescence of glutathione Sepharose beads carrying GST-PEA-15. In kind it is binding. The procedure: The GST-PEA-15 fusion protein was obtained according to the protocol described by Kitsberg et al. (J. Neurosci, 1999, 19: 8244).
The GST-PEA-15 fusion proteins were recovered after lysis of bacteria and were incubated together with a Sepharose bead covered with glutathione.
The beads thus obtained are incubated in the presence of 1 or 5 μM of 6D6-1, in a 20 mM Tris-HCl, pH 7.4; 100 mM NaCl; 1 mM MgCl2; 1% Triton X-100 buffer).
After a series of three washings, the beads are dried on a cellulose membrane and the fluorescence is quantified by means of a phosphoimager (Biorad), by measuring the fluorescence of the lissamine with excitation at 543 nm and measurement of the emission at 590 nm.
The results are the average of three independent experiences.

In the next assay the test system is ERK. Put plainly: Effect of 6D6-1 on ERK and PEA-15 subcellular location in primary astrocyte cultures (confocal microscopy). The assay is classed as cell-based, mouse. The following applies: primary astrocytes, 24 hours without serum; 50 μM 6D6-1 for 2 hours 15 minutes. The procedure: Primary astrocyte cultures were prepared from cortex and striatum of mouse embryos (day 16) as described by ARAUJO et al. (J. Biol. Chem., 1993, 268: 5911).
The primary astrocyte cultures were maintained for 24 hours in the absence of serum, a condition known to induce a mainly cytoplasmic location of ERK.
The cells were then treated or not with 50 μM of the 6D6-1 compound for 2 hours 15 minutes.
The subcellular location of ERK and PEA-15 was observed by confocal microscopy after labeling the cells with fluorescent antibodies.
The cells were washed twice with PBS (Dulbecco phosphate saline buffer, without CaCl2 nor MgCl2, Sigma), and fixed with 4% paraformaldehyde in PBS (pH 7.5), for 15 minutes, then washed twice with PBS comprising 0.1 M of glycine, at ambient temperature.
Then, the cells were incubated for 5 minutes in PBS containing 0.2% of X-100 triton.
The non-specific sites were blocked with PBS containing 10% of normal goat serum (NGS) for one hour at ambient temperature.
Then the cells were incubated overnight at 4° C. with PEA-15 specific antibodies (rabbit polyclonal antibody, Sharif et al., Neuroscience, 2004) or ERK specific antibodies (rabbit polyclonal antibody, Santa Cruz K-23 (ref. Sc-94)), diluted in PBS containing 1.5% of NGS. […]

T1 sequence (Q62048 whole entry): as the sequence (Q62048 whole entry, the tested form may be a part) above

Regarding “1-methyl-piperidin-4-His(Bzl)-Lys(o-Lissamine)-1-methyl-1H-imidazol-4-yl)-acetamide [Compound 6D6-1]”, the “fluorescence resonance energy transfer (FRET) on binding to GFP-PEA-15, fluorescence signal at 590 nm” value on GFP-PEA-15 is “enables a fluorescence resonance energy transfer (FRET)”. In addition, the “average intensity of fluorescence of beads carrying GST-PEA-15” value in assay [1] (1 or 5 μM 6D6-1, excitation 543 nm, emission 590 nm, average of three independent experiences) is listed as “depends upon the concentration of the compound”. Moreover, the “interaction with PEA-15 protein” value in assay [1] (general statement of the inventors' observation) is listed as “able to interact in a specific way with a PEA-15 protein”. Besides, in the assay on ERK, the “subcellular location of ERK” value is reported as “relocation of the ERK protein in the core; also recorded: relocation of ERK in the nucleus” and the “subcellular location of PEA-15” value was “remains cytoplasmic”.
